The record followed here is ChEMBL document CHEMBL1158371, “Design, synthesis, and evaluation of biphenyl-4-yl-acrylohydroxamic acid derivatives as histone deacetylase (HDAC) inhibitors” (Eur J Med Chem, 2009).

In general, IC50 refers to the concentration at which inhibition is half-maximal. Read a low IC50 as greater potency. A word on the inhibition in vivo: it is the relative decrease from the control value, in per cent. The IC80 is the point of the concentration-response curve where the effect stands at 80%. A higher IC80 goes with a need for much substance.

The subject of data set [1] is IGROV-1. Nature of the data set: Antiproliferative activity against cisplatin-resistant human IGROV1 cells after 72 hrs. It counts as functional, cell-based. The following applies: IGROV-1, 72 h.
In data set [2] the test system is Mus musculus. Kind of data set: Toxicity in athymic nude Swiss mouse bearing human HCT116 cells assessed as body weight loss at 20 mg/kg, po QD administered 5 days a week for 4 weeks. It counts as organism-based, HCT-116. More on the design: dose 20 mg/kg, route oral. The conditions noted are these: in vivo.
Data set [3] relates to HCT-116. Nature of the data set: Antitumor activity against human HCT116 cells athymic nude Swiss mouse assessed as tumor volume inhibition at 20 mg/kg, po QD administered 5 days a week for 4 weeks. It counts as functional.
In data set [4] the test system is NCI-H460. Nature of the data set: animal or person. It counts as functional, Homo sapiens. The conditions noted are these: Mus musculus, route oral.
Description: Antitumor activity against human H460 cells athymic nude Swiss mouse assessed as tumor volume inhibition at 100 mg/kg, po QD administered 5 days a week for 2 weeks
Data set [5] deals with IGROV-1. Kind of data set: Cell cycle arrest in cisplatin-resistant human IGROV1 cells assessed as partial accumulation at G2/M phase at IC80 using propidium-iodide staining by flow-cytometry. It counts as functional, cell-based.
Data set [6] concerns IGROV-1. Nature of the data set: Induction of apoptosis in human IGROV1 cells at IC80 after 72 hrs by TUNEL assay. It counts as functional.
Data set [7] relates to NCI-H460. Nature of the data set: Antitumor activity against human H460 cells athymic nude Swiss mouse assessed as tumor volume inhibition at 100 mg/kg, ip QD administered 5 days a week for 2 weeks. It counts as functional. The following applies: route intraperitoneal.
The subject of data set [8] is IGROV-1. Nature of the data set: Cell cycle arrest in human IGROV1 cells assessed as accumulation at sub-G1 phase at IC80 after 24 hrs using propidium-iodide staining by flow-cytometry. It counts as functional, cell-based.
For the next data set, the target named is Histone deacetylase 2 (Homo sapiens, UniProt Q92769). Nature of the data set: Inhibition of HDAC2 in human HeLa cells. It counts as cell-based.
The test system of data set [9] is Mus musculus. Kind of data set: Toxicity in athymic nude Swiss mouse bearing human IGROV1 cells assessed as body weight loss at 20 mg/kg, po QD administered 5 days a week for 4 weeks. Also noted: dose 20 mg/kg, route oral. The following applies: in vivo. It counts as organism-based, IGROV-1.
Data set [10] concerns HCT-116. Kind of data set: Antitumor activity against human HCT116 cells athymic nude Swiss mouse assessed as tumor volume inhibition at 20 mg/kg, ip QD administered 5 days a week for 4 weeks. It counts as functional. The conditions noted are these: HCT-116, ip, route intraperitoneal.
In data set [11] the test system is Mus musculus. Kind of data set: Toxicity in athymic nude Swiss mouse bearing human H460 cells assessed as body weight loss at 100 mg/kg, ip QD administered 5 days a week for 2 weeks. It counts as organism-based. Also noted: dose 100 mg/kg, route intraperitoneal. The following applies: in vivo.
Data set [12] has as its system IGROV-1. Nature of the data set: Antiproliferative activity against human IGROV1 cells after 72 hrs. The conditions noted are these: IGROV-1, 72 h. It counts as functional, cell-based.
For data set [13], the system named is IGROV-1. Kind of data set: Cell cycle arrest in cisplatin-resistant human IGROV1 cells assessed as partial accumulation at S phase at IC80 using propidium-iodide staining by flow-cytometry. It counts as functional, cell-based.
Data set [14] relates to IGROV-1. Kind of data set: Antitumor activity against human IGROV1 cells athymic nude Swiss mouse assessed as tumor volume inhibition at 20 mg/kg, po QD administered 5 days a week for 4 weeks. It counts as functional.
The test system of data set [15] is NCI-H460. Kind of data set: Antiproliferative activity against human H460 cells after 72 hrs. It counts as functional, cell-based. The conditions noted are these: NCI-H460, 72 h.
In data set [16] the test system is IGROV-1. Nature of the data set: Antiproliferative activity against human IGROV1 cells after 72 hrs by cell counting. The following applies: IGROV-1, 72 h.
Data set [17] has as its system HCT-116. Kind of data set: Antiproliferative activity against human HCT116 cells after 72 hrs. The following applies: HCT-116, 72 h. It counts as functional, cell-based.
In data set [18] the test system is Mus musculus. Nature of the data set: Toxicity in athymic nude Swiss mouse bearing human HCT116 cells assessed as body weight loss at 20 mg/kg, ip QD administered 5 days a week for 4 weeks. It counts as organism-based, HCT-116. More on the design: dose 20 mg/kg, route intraperitoneal. The following applies: in vivo.
Data set [19] has as its system Mus musculus. Kind of data set: Toxicity in athymic nude Swiss mouse bearing human HCT116 cells assessed as body weight loss at 40 mg/kg, po QD administered 5 days a week for 4 weeks. It counts as organism-based, HCT-116. Also noted: dose 40 mg/kg, route oral. The conditions noted are these: in vivo.
The subject of data set [20] is IGROV-1. Nature of the data set: Antitumor activity against human IGROV1 cells athymic nude Swiss mouse assessed as tumor volume inhibition at 40 mg/kg, po QD administered 5 days a week for 4 weeks. It counts as functional.
A further data set relates to NB-4. Kind of data set: Antiproliferative activity against human NB4 cells after 72 hrs. It counts as functional, cell-based. The following applies: NB-4, 72 h.
Data set [21] has as its system Mus musculus. Kind of data set: Toxicity in athymic nude Swiss mouse bearing human IGROV1 cells assessed as body weight loss at 40 mg/kg, po QD administered 5 days a week for 4 weeks. It counts as organism-based, IGROV-1. More on the design: dose 40 mg/kg, route oral. The conditions noted are these: in vivo.
The test system of data set [22] is HCT-116. Nature of the data set: Antitumor activity against human HCT116 cells athymic nude Swiss mouse assessed as tumor volume inhibition at 40 mg/kg, po QD administered 5 days a week for 4 weeks. It counts as functional.
Data set [23] deals with Mus musculus. Kind of data set: Toxicity in athymic nude Swiss mouse bearing human HCT116 cells assessed as body weight loss at 100 mg/kg, po QD administered 5 days a week for 4 weeks. It counts as organism-based, HCT-116. The conditions noted are these: in vivo. More on the design: dose 100 mg/kg, route oral.
Data set [24] relates to IGROV-1. Nature of the data set: Induction of apoptosis in human IGROV1 cells at IC90 after 72 hrs by TUNEL assay. It counts as functional.
Data set [25] relates to IGROV-1. Nature of the data set: Cell cycle arrest in cisplatin-resistant human IGROV1 cells assessed as partial accumulation at G2/M phase at IC90 using propidium-iodide staining by flow-cytometry. It counts as functional, cell-based.
The test system of data set [26] is IGROV-1. Kind of data set: Cell cycle arrest in human IGROV1 cells assessed as accumulation at sub-G1 phase at IC90 after 24 hrs using propidium-iodide staining by flow-cytometry. It counts as functional, cell-based.
In data set [27] the test system is IGROV-1. Kind of data set: Cell cycle arrest in cisplatin-resistant human IGROV1 cells assessed as partial accumulation at S phase at IC90 using propidium-iodide staining by flow-cytometry. It counts as functional, cell-based.

Calls of active or inactive are those of the source. The rule behind the calls is not given here.

Histone deacetylase 2, sequence (Q92769 whole entry): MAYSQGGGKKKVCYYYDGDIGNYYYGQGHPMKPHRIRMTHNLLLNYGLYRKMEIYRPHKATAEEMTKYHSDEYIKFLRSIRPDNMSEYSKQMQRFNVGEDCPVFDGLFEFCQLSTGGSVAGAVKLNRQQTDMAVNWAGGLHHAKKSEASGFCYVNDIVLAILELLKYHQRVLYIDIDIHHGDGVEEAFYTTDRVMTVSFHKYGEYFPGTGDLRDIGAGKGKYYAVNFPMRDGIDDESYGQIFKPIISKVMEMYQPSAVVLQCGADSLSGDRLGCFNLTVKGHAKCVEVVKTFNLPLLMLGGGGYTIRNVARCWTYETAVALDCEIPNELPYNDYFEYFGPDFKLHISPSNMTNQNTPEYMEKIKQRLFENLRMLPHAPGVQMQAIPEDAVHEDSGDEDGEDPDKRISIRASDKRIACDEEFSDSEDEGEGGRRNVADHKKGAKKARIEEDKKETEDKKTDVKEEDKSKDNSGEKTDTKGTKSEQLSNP

For the compound `COc1ccc(-c2ccc(/C=C/C(=O)NO)cc2)cc1`, the IC50 in the data set on IGROV-1 [1] came to 2.3 µM; against Histone deacetylase 2 it was 1.16 µM; in the data set on IGROV-1 [12], 0.75 µM; in the data set with NCI-H460 [15], 3.7 µM; in the data set on HCT-116 [17], 0.22 µM. Further, the Activity in the data set on Mus musculus [2] turned out to be 1%; in the data set on IGROV-1 [6] it was 52%; in the data set with Mus musculus [9] it was 0%; in the data set on Mus musculus [11], 4%; in the data set with Mus musculus [18], 2%. Moreover, the values for the inhibition in vivo at 20 mg/kg in the data set with HCT-116 [3], in the data set on HCT-116 [10] and in the data set on IGROV-1 [14] were 35%, 50% and 71%, respectively. Further, the inhibition in vivo at 100 mg/kg with NCI-H460 [4] turned out to be 57%; with NCI-H460 [7], 39%. Also, the outcome in the data set with IGROV-1 [5], in the data set on IGROV-1 [8] and in the data set on IGROV-1 [13] was Active. In the data set with IGROV-1 [16], the IC80 was 3 µM.

In the case of `O=C(/C=C/c1ccc(-c2ccc(O)cc2)cc1)NO`, the Activity with Mus musculus [19] stood at 8%; with IGROV-1 [6], 40%; with Mus musculus [9], 2%; in the data set on Mus musculus [21] it was 6%. The IC50 with IGROV-1 [1] was found to be 6.5 µM; in the data set on NB-4, 2.3 µM; in the data set with IGROV-1 [12] it was 7.6 µM; in the data set on NCI-H460 [15], 6 µM; in the data set on HCT-116 [17], 0.33 µM. The figures for the inhibition in vivo at 40 mg/kg in the data set with IGROV-1 [20] and with HCT-116 [22] were 49% and 65%, respectively. In the data set on IGROV-1 [14], the inhibition in vivo at 20 mg/kg worked out at 44%. The compound further yielded an IC80 in the data set on IGROV-1 [16] of 20 µM.

As for `O=C(CCCCCCC(=O)Nc1ccccc1)NO` [VORINOSTAT], the Activity in the data set with Mus musculus [23] was found to be 4%; in the data set with IGROV-1 [24], 45%; in the data set on IGROV-1 [6] it was 15%. Moreover, the IC50 turned out to be 2.2 µM with IGROV-1 [1], 2.2 µM in the data set with IGROV-1 [12] and 0.31 µM with HCT-116 [17]. Also, the outcome in the data set with IGROV-1 [5], in the data set with IGROV-1 [8], in the data set with IGROV-1 [25], in the data set on IGROV-1 [26], in the data set with IGROV-1 [13] and in the data set with IGROV-1 [27] was Active.
